pEC50: −log10 of the molar value.
Tests used:
[1] = target: Beta-1 adrenergic receptor (Homo sapiens, UniProt P08588); test: Agonist activity at human recombinant beta-1 adrenergic receptor expressed in CHO cells assessed as cAMP accumulation by enzyme immuno assay; assay type: functional, cell-based
[2] = target: Beta-3 adrenergic receptor (Homo sapiens, UniProt P13945); test: Agonist activity at human recombinant beta3 adrenergic receptor expressed in CHO cells assessed as cAMP accumulation by enzyme immuno assay; assay type: functional, cell-based
Chain of Beta-3 adrenergic receptor (Homo sapiens, UniProt P13945) (P13945 whole entry): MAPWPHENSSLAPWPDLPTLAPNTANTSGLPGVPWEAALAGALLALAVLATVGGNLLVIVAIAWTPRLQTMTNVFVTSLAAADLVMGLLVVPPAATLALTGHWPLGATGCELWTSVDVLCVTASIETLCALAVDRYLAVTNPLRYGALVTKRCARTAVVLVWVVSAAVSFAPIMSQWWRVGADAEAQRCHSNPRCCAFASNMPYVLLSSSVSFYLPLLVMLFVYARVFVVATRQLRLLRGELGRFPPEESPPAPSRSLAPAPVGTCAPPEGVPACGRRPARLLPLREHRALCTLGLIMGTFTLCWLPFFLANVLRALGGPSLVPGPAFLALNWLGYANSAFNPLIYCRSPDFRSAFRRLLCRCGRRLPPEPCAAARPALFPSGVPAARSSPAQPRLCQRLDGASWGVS

[3] = target: Beta-2 adrenergic receptor (Homo sapiens, UniProt P07550); test: Agonist activity at human recombinant beta2 adrenergic receptor expressed in CHO cells assessed as cAMP accumulation by enzyme immuno assay; assay type: functional, cell-based
Chain of Beta-2 adrenergic receptor (P07550 whole entry): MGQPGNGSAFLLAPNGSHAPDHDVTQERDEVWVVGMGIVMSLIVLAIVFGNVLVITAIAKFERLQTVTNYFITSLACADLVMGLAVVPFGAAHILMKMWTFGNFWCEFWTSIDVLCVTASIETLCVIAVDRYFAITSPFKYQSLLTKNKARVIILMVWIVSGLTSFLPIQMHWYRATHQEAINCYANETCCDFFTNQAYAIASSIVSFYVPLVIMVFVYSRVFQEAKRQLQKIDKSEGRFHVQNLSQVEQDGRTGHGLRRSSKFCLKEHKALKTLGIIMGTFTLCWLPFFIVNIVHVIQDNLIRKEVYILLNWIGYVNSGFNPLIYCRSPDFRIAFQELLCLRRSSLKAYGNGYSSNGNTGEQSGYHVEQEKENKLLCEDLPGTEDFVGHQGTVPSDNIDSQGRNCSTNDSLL

[4] = Cmax in monkey at 0.32 mg/kg, po by cassette assay; assay type: ADME, organism-based, Macaca mulatta; design: dose 0.32 mg/kg, route oral; details: rhesus monkey, in vivo
[5] = AUC (0 to 24 hrs) in monkey at 0.32 mg/kg, po by cassette assay; assay type: ADME, organism-based, Macaca mulatta; design: time < 24 hr, dose 0.32 mg/kg, route oral; details: rhesus monkey, plasma
[6] = Bioavailability in monkey at 0.32 mg/kg, po by cassette assay; assay type: ADME, organism-based, Macaca mulatta; details: rhesus monkey, in vivo
[7] = Terminal half life in monkey plasma at 0.32 mg/kg, iv by cassette assay; assay type: ADME, organism-based, Macaca mulatta; design: dose 0.32 mg/kg, route intravenous; details: rhesus monkey, read-out: beta t1/2 (converted)
[8] = Total clearance in monkey at 0.32 mg/kg, iv by cassette assay; assay type: ADME, organism-based, Macaca mulatta; design: dose 0.32 mg/kg, route intravenous; details: rhesus monkey, in vivo
[9] = Cmax in dog at 0.1 mg/kg, po; assay type: ADME, organism-based, Canis lupus familiaris; design: dose 0.1 mg/kg, route oral; details: in vivo
[10] = Bioavailability in dog at 0.1 mg/kg, po; assay type: ADME, organism-based, Canis lupus familiaris; details: in vivo
[11] = Terminal half life in dog at 0.1 mg/kg, iv; assay type: ADME, organism-based, Canis lupus familiaris; design: dose 0.1 mg/kg, route intravenous; details: in vivo, read-out: beta t1/2 (converted)
[12] = Total clearance in dog at 0.1 mg/kg, iv; assay type: ADME, organism-based, Canis lupus familiaris; design: dose 0.1 mg/kg, route intravenous; details: in vivo
[13] = Cmax in rat at 0.34 mg/kg, po by cassette assay; assay type: ADME, organism-based; design: dose 0.34 mg/kg, route oral; details: in vivo
[14] = AUC (0 to 24 hrs) in rat at 0.34 mg/kg, po by cassette assay; assay type: ADME, organism-based; design: time < 24 hr, dose 0.34 mg/kg, route oral; details: plasma
[15] = tested on: Rattus norvegicus; test: Terminal half life in rat at 0.34 mg/kg, iv by cassette assay; assay type: ADME, organism-based; design: dose 0.34 mg/kg, route intravenous; details: in vivo
[16] = Total clearance in rat at 0.34 mg/kg, iv by cassette assay; assay type: ADME, organism-based; design: dose 0.34 mg/kg, route intravenous; details: in vivo
[17] = tested on: Rattus norvegicus; test: Bioavailability in rat at 0.34 mg/kg, po by cassette assay; assay type: ADME, organism-based; details: in vivo
[18] = target: Beta-3 adrenergic receptor (Canis lupus familiaris, UniProt O02662); test: Agonist activity at dog recombinant beta3 adrenergic receptor expressed in CHO cells assessed as cAMP accumulation by enzyme immuno assay; assay type: functional, cell-based
Chain of Beta-3 adrenergic receptor (Canis lupus familiaris, UniProt O02662) (O02662 whole entry): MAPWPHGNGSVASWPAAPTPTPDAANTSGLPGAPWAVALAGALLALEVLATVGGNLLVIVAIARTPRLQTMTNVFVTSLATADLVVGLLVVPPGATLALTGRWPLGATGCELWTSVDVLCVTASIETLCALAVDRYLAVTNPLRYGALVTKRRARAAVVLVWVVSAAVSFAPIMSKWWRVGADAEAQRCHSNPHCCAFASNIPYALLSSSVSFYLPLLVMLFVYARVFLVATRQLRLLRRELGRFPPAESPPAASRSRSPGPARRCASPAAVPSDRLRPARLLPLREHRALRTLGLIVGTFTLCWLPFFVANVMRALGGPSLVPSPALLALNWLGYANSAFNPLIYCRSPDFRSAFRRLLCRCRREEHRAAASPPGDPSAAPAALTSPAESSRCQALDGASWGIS

[19] = Protein binding in Beagle dog serum; assay type: ADME, cell-free, Canis lupus familiaris; details: read-out: PPB (converted)
[20] = AUC (0 to 24 hrs) in dog at 0.1 mg/kg, po; assay type: ADME, organism-based, Canis lupus familiaris; design: time < 24 hr, dose 0.1 mg/kg, route oral; details: plasma
[21] = species on record: Canis familiaris; test: cells; details: Canis lupus familiaris, 3 h
Description: Inhibition of carbachol-induced increase in intravesical pressure in intraduodenally dosed Beagle dog OAB model for 180 mins

[22] = AUC (0 to 2 hrs) in Beagle dog at 0.1 mg/kg, po by cassette assay; assay type: ADME, organism-based, Canis lupus familiaris; design: time < 2 hr, dose 0.1 mg/kg, route oral; details: plasma
[23] = Terminal half life in Beagle dog at 0.1 mg/kg, iv by cassette assay; assay type: ADME, organism-based, Canis lupus familiaris; design: dose 0.1 mg/kg, route intravenous; details: in vivo, read-out: beta t1/2 (converted)
[24] = Volume of distribution at steady state in Beagle dog at 0.1 mg/kg, iv by cassette assay; assay type: ADME, organism-based, Canis lupus familiaris; design: dose 0.1 mg/kg, route intravenous; details: in vivo, read-out: Vdss
[25] = AUC (0 to 24 hrs) in Beagle dog at 0.1 mg/kg, iv by cassette assay; assay type: ADME, organism-based, Canis lupus familiaris; design: time < 24 hr, dose 0.1 mg/kg, route intravenous; details: plasma
[26] = Total clearance in Beagle dog at 0.1 mg/kg, iv by cassette assay; assay type: ADME, organism-based, Canis lupus familiaris; design: dose 0.1 mg/kg, route intravenous; details: in vivo
[27] = Bioavailability in Beagle dog at 0.1 mg/kg, po by cassette assay; assay type: ADME, organism-based, Canis lupus familiaris; details: in vivo
[28] = Metabolic stability assessed as intrinsic clearance in dog liver microsome in presence of NADPH-generating system; assay type: ADME, Canis lupus familiaris; details: liver microsomes
[29] = Metabolic stability assessed as intrinsic clearance in rat liver microsome in presence of NADPH-generating system; assay type: ADME; details: liver microsomes
[30] = Metabolic stability assessed as intrinsic clearance in monkey liver microsome in presence of NADPH-generating system; assay type: ADME, Macaca mulatta; details: rhesus monkey, liver microsomes
[31] = Metabolic stability assessed as intrinsic clearance in human liver microsome in presence of NADPH-generating system; assay type: ADME; details: liver microsomes
[32] = Cmax in rat at 1.0 mg/kg, po by cassette assay; assay type: ADME, organism-based; design: dose 1 mg/kg, route oral; details: in vivo
[33] = AUC (0 to 24 hrs) in rat at 1.0 mg/kg, po by cassette assay; assay type: ADME, organism-based; design: time < 24 hr, dose 1 mg/kg, route oral; details: plasma
[34] = Bioavailability in rat at 1.0 mg/kg, po by cassette assay; assay type: ADME, organism-based; details: in vivo
[35] = Total clearance in rat at 1.0 mg/kg, iv by cassette assay; assay type: ADME, organism-based; design: dose 1 mg/kg, route intravenous; details: in vivo

Chain of Beta-1 adrenergic receptor (P08588 whole entry): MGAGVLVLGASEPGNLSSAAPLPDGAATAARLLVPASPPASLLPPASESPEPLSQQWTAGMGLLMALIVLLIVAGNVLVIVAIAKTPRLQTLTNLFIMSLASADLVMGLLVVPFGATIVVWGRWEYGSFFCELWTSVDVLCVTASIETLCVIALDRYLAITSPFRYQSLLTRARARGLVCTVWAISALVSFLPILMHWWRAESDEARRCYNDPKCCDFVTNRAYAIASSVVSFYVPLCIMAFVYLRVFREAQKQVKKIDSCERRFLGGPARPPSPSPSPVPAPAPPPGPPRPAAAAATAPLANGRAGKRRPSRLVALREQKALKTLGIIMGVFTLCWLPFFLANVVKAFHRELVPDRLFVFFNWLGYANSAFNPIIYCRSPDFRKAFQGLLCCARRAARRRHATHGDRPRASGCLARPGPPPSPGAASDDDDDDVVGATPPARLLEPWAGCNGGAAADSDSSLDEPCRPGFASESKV

SMILES	pEC50 [1]	pEC50 [2]	pEC50 [3]	AUC(0-t) at 24 h [5] [ng·h/mL]	bioavailability [6] [%]	clearance [8] [mL/min/kg]	Cmax [9] [ng/mL]	bioavailability [10] [%]	half-life [11] [h]	clearance [12] [mL/min/kg]	pEC50 [18]	fraction unbound [19]	AUC(0-t) at 24 h [20] [ng·h/mL]	pEC50 [21]	ED50 [21] [mg/kg]	further results
CC(C)Oc1cc(-c2ccc(CCN[C@@H](C)[C@H](O)c3ccccc3)cc2)ccc1C(=O)O	6.11	9.09	< 5.00	1800	88.2	2.5	7.4	63.9	14.3	7.3	8.43	0.14	134	8.02	0.02	Cmax [4]: 178 ng/mL; half-life [7]: 29 h; Cmax [13]: 125 ng/mL; AUC(0-t) at 24 h [14]: 880 ng·h/mL; beta t1/2 [15]: 8.2 h; clearance [16]: 6.8 mL/min/kg; bioavailability [17]: 100%
CC(C)Oc1cc(-c2ccc(C[C@@H](C)NC[C@H](O)c3ccccc3)cc2)ccc1C(=O)O	7.07	10.04	< 5.00	1300	52.8	1.8	8.5	79.6	14.3	7.83	9.72	0.14	162	8.60	0.0035	AUC(0-t) at 2 h [22]: 106 ng·h/mL; half-life [23]: 15.5 h; Vd [24]: 5.4 L/kg; AUC(0-t) at 24 h [25]: 260 ng·h/mL; clearance [26]: 6.5 mL/min/kg; bioavailability [27]: 41%; CLint scaled [28]: < 0.1 mL/min/kg; CLint scaled [29]: < 0.1 mL/min/kg; CLint scaled [30]: < 1 mL/min/kg; CLint scaled [31]: < 0.1 mL/min/kg; Cmax [32]: 116 ng/mL; AUC(0-t) at 24 h [33]: 1640 ng·h/mL; bioavailability [34]: 69.7%; clearance [35]: 7.2 mL/min/kg

From ChEMBL document CHEMBL1157533 (J Med Chem, 2008)
